According to US4231928A, “Antibacterial agents” (priority 1979, dated 1980):
≈ marks a conversion by molar mass, not a printed value. Like-named read-outs stand apart in the source and are kept apart here.

Assays:
[1] = system: E. cloacae; assay: Serial twofold agar dilution (Mueller-Hinton agar), E. cloacae; format: cell-based; conditions: Enterobacter cloacae
Procedure, shortened: (§1)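 Read-out is the minimum inhibitory concentration from a serial twofold agar dilution series on Mueller-Hinton agar, plated using Steers' apparatus.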

[2] = system: P. mirabilis; assay: Serial twofold agar dilution (Mueller-Hinton agar), P. mirabilis; format: cell-based; conditions: Proteus mirabilis, P. mirabilis A9900; Mueller-Hinton agar; Table 8; read-out: MIC
Procedure, shortened: as §1

[3] = system: S. enteritidis; assay: Serial twofold agar dilution (Mueller-Hinton agar), S. enteritidis; format: cell-based; conditions: Salmonella enterica, S. enteritidis A9531, Table 8, read-out: MIC
Procedure, shortened: as §1

[4] = system: Pseudomonas sp.; assay: Serial twofold agar dilution (Mueller-Hinton agar), Pseudomonas sp.; format: cell-based; conditions: Pseudomonas sp. A20358, Table 8, read-out: MIC
Procedure, shortened: as §1

[5] = system: P. vulgaris; assay: Serial twofold agar dilution (Mueller-Hinton agar), P. vulgaris; format: cell-based; conditions: Proteus vulgaris, P. vulgaris A9539, Table 8, read-out: MIC
Procedure, shortened: as §1

[6] = system: K. pneumoniae; assay: Serial twofold agar dilution (Mueller-Hinton agar), K. pneumoniae; format: cell-based; conditions: Klebsiella pneumoniae, K. pneumoniae A9977, Table 8, read-out: MIC
Procedure, shortened: as §1

[7] = system: Pseudomonas aeruginosa; assay: Serial twofold agar dilution (Mueller-Hinton agar), P. aeruginosa; format: cell-based; conditions: Pseudomonas aeruginosa
Procedure, shortened: as §1

[8] = system: Klebsiella sp.; assay: Serial twofold agar dilution (Mueller-Hinton agar), Klebsiella sp.; format: cell-based; conditions: Klebsiella sp. A20452, Mueller-Hinton agar, Table 8, read-out: MIC
Procedure, shortened: as §1

[9] = system: P. morganii; assay: Serial twofold agar dilution (Mueller-Hinton agar), P. morganii; format: cell-based; conditions: Morganella morganii, P. morganii A9553, Table 8, read-out: MIC
Procedure, shortened: as §1

[10] = system: E. coli; assay: Serial twofold agar dilution (Mueller-Hinton agar), E. coli; format: cell-based; conditions: Escherichia coli
Procedure, shortened: as §1

[11] = system: S. marcescens; assay: Serial twofold agar dilution (Mueller-Hinton agar), S. marcescens; format: cell-based; conditions: Serratia marcescens, S. marcescens A20019, Table 8
Procedure, shortened: as §1

[12] = Mouse blood levels after subcutaneous administration; conditions: in vivo, sc, 20 mg/kg
Description: Mouse blood levels of BB-[…] and BB-[…] were determined by subcutaneous administration of 20 mg/kg of the penicillin to groups of three mice. Blood samples collected from orbital sinuses were assayed by the paper disk agar-diffusion method on Sarcina lutea PC1 1001 plates.

[13] = system: S. aureus; assay: Serial twofold agar dilution (Mueller-Hinton agar), S. aureus; format: cell-based; conditions: Staphylococcus aureus
Procedure, shortened: as §1

Q: What does the source list for `CC1(C)S[C@@H]2[C@H](NC(=O)C(C(=O)O)c3ccccc3)C(=O)N2[C@H]1C(=O)O` (stereo partly drawn) [Carbenicillin, reference compound]?
A: MIC ([1]; E. cloacae A9656, Table 8): 3.1 µg/mL (≈ 8.19 µM); MIC ([1]; E. cloacae A9657, Table 8): 25 µg/mL (≈ 66.1 µM); MIC ([1]; E. cloacae A9659, Table 8): 3.1 µg/mL (≈ 8.19 µM); MIC [2]: 0.4 µg/mL (≈ 1.06 µM); MIC [3]: 0.8 µg/mL (≈ 2.11 µM); MIC [4]: 3.1 µg/mL (≈ 8.19 µM); MIC [5]: 1.6 µg/mL (≈ 4.23 µM); MIC [6]: 3.1 µg/mL (≈ 8.19 µM); MIC ([7]; 61 strains of P. aeruginosa, Table 9, read-out: Geometric mean of MIC): 30 µg/mL (≈ 79.2 µM); MIC ([7]; ATCC19660, Pa-14 ATCC 19660 A20325, Mueller-Hinton agar, Table 9, read-out: MIC): 50 µg/mL (≈ 132 µM); MIC ([7]; GN315, Pa-27 GN315 A21294, Mueller-Hinton agar, Table 9, read-out: MIC): 25 µg/mL (≈ 66.1 µM); MIC ([7]; GN4925, Pa-45 GN 4925, Mueller-Hinton agar, Table 9, read-out: MIC): 100 µg/mL (≈ 264 µM); MIC ([7]; P. aeruginosa A9843, Mueller-Hinton agar, Table 8, read-out: MIC): 25 µg/mL (≈ 66.1 µM); MIC ([7]; P. aeruginosa A9930, Mueller-Hinton agar, Table 8, read-out: MIC): 25 µg/mL (≈ 66.1 µM); MIC ([7]; P. aeruginosa A15150, Mueller-Hinton agar, Table 8, read-out: MIC): 25 µg/mL (≈ 66.1 µM); MIC ([7]; P. aeruginosa A20717, Mueller-Hinton agar, Table 8, read-out: MIC): 100 µg/mL (≈ 264 µM); MIC ([7]; Pa-1 D15, Mueller-Hinton agar, Table 9, read-out: MIC): 12.5 µg/mL (≈ 33 µM); MIC ([7]; Pa-3 1449 V.A A9930, Mueller-Hinton agar, Table 9, read-out: MIC): 12.5 µg/mL (≈ 33 µM); MIC ([7]; Pa-5 M4865, K.C A15150, Mueller-Hinton agar, Table 9, read-out: MIC): 6.3 µg/mL (≈ 16.6 µM); MIC ([7]; Pa-6 No. 5 Levitan A15194, Mueller-Hinton agar, Table 9, read-out: MIC): > 100 µg/mL; MIC ([7]; Pa-7 A9843, Mueller-Hinton agar, Table 9, read-out: MIC): 50 µg/mL (≈ 132 µM); MIC ([7]; Pa-10 A21479, Mueller-Hinton agar, Table 9, read-out: MIC): > 100 µg/mL; MIC ([7]; Pa-12 A20653, Mueller-Hinton agar, Table 9, read-out: MIC): 50 µg/mL (≈ 132 µM); MIC ([7]; Pa-15 A20717, Mueller-Hinton agar, Table 9, read-out: MIC): > 100 µg/mL; MIC ([7]; Pa-16 #130 A20718, Mueller-Hinton agar, Table 9, read-out: MIC): 6.3 µg/mL (≈ 16.6 µM); MIC ([7]; Pa-17 H6, D114, Mueller-Hinton agar, Table 9, read-out: MIC): 12.5 µg/mL (≈ 33 µM); MIC ([7]; Pa-18 H8, D121, Mueller-Hinton agar, Table 9, read-out: MIC): 3.1 µg/mL (≈ 8.19 µM); MIC ([7]; Pa-19 A20229, Mueller-Hinton agar, Table 9, read-out: MIC): 12.5 µg/mL (≈ 33 µM); MIC ([7]; Pa-24 A20896, Mueller-Hinton agar, Table 9, read-out: MIC): > 100 µg/mL; MIC ([7]; Pa-25 A20897, Mueller-Hinton agar, Table 9, read-out: MIC): 3.1 µg/mL (≈ 8.19 µM); MIC ([7]; Pa-26 PS32, Mueller-Hinton agar, Table 9, read-out: MIC): 0.4 µg/mL (≈ 1.06 µM); MIC ([7]; Pa-28 C.P.H. 10527/72, Mueller-Hinton agar, Table 9, read-out: MIC): 50 µg/mL (≈ 132 µM); MIC ([7]; Pa-31 A20594, Mueller-Hinton agar, Table 9, read-out: MIC): 12.5 µg/mL (≈ 33 µM); MIC ([7]; Pa-32 A20595, Mueller-Hinton agar, Table 9, read-out: MIC): 50 µg/mL (≈ 132 µM); MIC ([7]; Pa-33 A20598, Mueller-Hinton agar, Table 9, read-out: MIC): 12.5 µg/mL (≈ 33 µM); MIC ([7]; Pa-35, Mueller-Hinton agar, Table 9, read-out: MIC): 100 µg/mL (≈ 264 µM); MIC ([7]; Pa-36, Mueller-Hinton agar, Table 9, read-out: MIC): 1.6 µg/mL (≈ 4.23 µM); MIC ([7]; Pa-37 A20130, Mueller-Hinton agar, Table 9, read-out: MIC): 50 µg/mL (≈ 132 µM); MIC ([7]; Pa-38 A20349, Mueller-Hinton agar, Table 9, read-out: MIC): 100 µg/mL (≈ 264 µM); MIC ([7]; Pa-39 A20641, Mueller-Hinton agar, Table 9, read-out: MIC): 12.5 µg/mL (≈ 33 µM); MIC ([7]; Pa-42 A21229, Mueller-Hinton agar, Table 9, read-out: MIC): > 100 µg/mL; MIC ([7]; Pa-43 A21233, Mueller-Hinton agar, Table 9, read-out: MIC): 50 µg/mL (≈ 132 µM); MIC ([7]; Pa-44 A21274, Mueller-Hinton agar, Table 9, read-out: MIC): 50 µg/mL (≈ 132 µM); MIC ([7]; Pa-52 A9926, Mueller-Hinton agar, Table 9, read-out: MIC): 50 µg/mL (≈ 132 µM); MIC ([7]; Pa-54 A20128, Mueller-Hinton agar, Table 9, read-out: MIC): 50 µg/mL (≈ 132 µM); MIC ([7]; Pa-55 A20227, Mueller-Hinton agar, Table 9, read-out: MIC): 50 µg/mL (≈ 132 µM); MIC ([7]; Pa-57 A20546, Mueller-Hinton agar, Table 9, read-out: MIC): 50 µg/mL (≈ 132 µM); MIC ([7]; Pa-58 A20557, Mueller-Hinton agar, Table 9, read-out: MIC): 50 µg/mL (≈ 132 µM); MIC ([7]; Pa-61 A20726, Mueller-Hinton agar, Table 9, read-out: MIC): 50 µg/mL (≈ 132 µM); MIC ([7]; Pa-62 A21213, Mueller-Hinton agar, Table 9, read-out: MIC): > 100 µg/mL; MIC ([7]; Pa-66 A21434, Mueller-Hinton agar, Table 9, read-out: MIC): 50 µg/mL (≈ 132 µM); MIC ([7]; Pa-67 A21509, Mueller-Hinton agar, Table 9, read-out: MIC): 50 µg/mL (≈ 132 µM); MIC ([7]; Pa-68 A21510, Mueller-Hinton agar, Table 9, read-out: MIC): 50 µg/mL (≈ 132 µM); MIC ([7]; Pa-69 A21587, Mueller-Hinton agar, Table 9, read-out: MIC): 100 µg/mL (≈ 264 µM); MIC [8]: 6.3 µg/mL (≈ 16.6 µM); MIC [9]: > 100 µg/mL; MIC ([10]; E. coli A9635, Table 8, read-out: MIC): 6.3 µg/mL (≈ 16.6 µM); MIC ([10]; E. coli A9844, Table 8, read-out: MIC): 0.4 µg/mL (≈ 1.06 µM); MIC ([10]; E. coli A20366, Table 8, read-out: MIC): > 100 µg/mL; MIC ([10]; E. coli A20520, Table 8, read-out: MIC): 1.6 µg/mL (≈ 4.23 µM); MIC ([10]; E. coli A20664, Table 8, read-out: MIC): 0.8 µg/mL (≈ 2.11 µM); MIC ([10]; E. coli A20732, Table 8, read-out: MIC): > 100 µg/mL; MIC ([10]; E. coli A20898, Table 8, read-out: MIC): > 100 µg/mL; MIC ([10]; E. coli Juhl A15119, Table 8, read-out: MIC): 3.1 µg/mL (≈ 8.19 µM); MIC ([10]; E. coli NIHJ, Table 8, read-out: MIC): 0.4 µg/mL (≈ 1.06 µM); MIC [11]: 3.1 µg/mL (≈ 8.19 µM); concentration at 0.25 h [12]: 11500 ng/mL; concentration at 0.5 h [12]: 9000 ng/mL; concentration at 1 h [12]: 5800 ng/mL; MIC ([13]; S. aureus A15097, Table 8, read-out: MIC): 50 µg/mL (≈ 132 µM); MIC ([13]; S. aureus A20239, Table 8, read-out: MIC): 6.3 µg/mL (≈ 16.6 µM); MIC ([13]; S. aureus A20240, Table 8, read-out: MIC): 3.1 µg/mL (≈ 8.19 µM); MIC ([13]; S. aureus A20701, Table 8, read-out: MIC): 50 µg/mL (≈ 132 µM); MIC ([13]; S. aureus BX-1633 A9606, Table 8, read-out: MIC): 6.3 µg/mL (≈ 16.6 µM); MIC ([13]; S. aureus Smith A9537, Table 8, read-out: MIC): 0.2 µg/mL (≈ 0.529 µM)
